The target of the assay is T1, Tyrosine-protein phosphatase non-receptor type 7 (Homo sapiens, UniProt P35236).
T1 sequence (P35236 whole entry): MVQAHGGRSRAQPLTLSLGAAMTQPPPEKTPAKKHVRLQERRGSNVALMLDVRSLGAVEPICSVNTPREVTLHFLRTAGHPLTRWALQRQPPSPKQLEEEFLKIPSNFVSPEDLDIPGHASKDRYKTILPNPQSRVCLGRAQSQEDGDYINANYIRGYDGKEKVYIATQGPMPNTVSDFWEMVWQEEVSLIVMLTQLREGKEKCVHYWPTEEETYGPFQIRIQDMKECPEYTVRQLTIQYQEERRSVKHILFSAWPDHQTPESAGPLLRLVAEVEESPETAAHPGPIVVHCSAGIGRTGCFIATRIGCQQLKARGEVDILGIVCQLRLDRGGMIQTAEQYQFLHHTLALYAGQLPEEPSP
Briefly: HePTP phosphatase inhibitors, dose response, biochemical, fluorescence, OMFP substrate, HTS hits, set 2 (AID 435032).

Where only a bound is given, the exact number is not on record here.

In the case of `O=C1C([N+](=O)[O-])=CC(Br)=CC1/C=N/n1cnnc1` (stereo not given) [MLS000714804], the IC50 was greater than 79.4 µM. On to `N=C(NN=Cc1ccc2c(c1)OCO2)Sc1cc(O)n(-c2ccc(C(=O)O)cc2)c1O` [4-(3-{[[(2E)-2-(1,3-benzodioxol-5-ylmethylene)hydrazino](imino)methyl]thio}-2,5-dioxopyrrolidin-1-yl)benzoic acid], for which the half-inhibitory concentration (IC50) worked out at 7.33 µM.

In turn, `COC1=CC=CC(/C=N/NC(=O)c2cc3cc([N+](=O)[O-])ccc3s2)C1=O` (stereo not given) [SMR000237814] came in with an IC50 of 14.9 µM. With `Cc1ccc(NN=C2C(=O)N(CN3CCOCC3)c3ccccc32)cc1` [(3Z)-3-[(4-methylphenyl)hydrazinylidene]-1-(4-morpholinylmethyl)-2-indolone] the figure was greater than 79.4 µM; with `CCOC(=O)NC(=O)C(C=Nc1ccc(C)cc1)C(=O)NC(=O)OCC` [ethyl 2-{[(ethoxycarbonyl)amino]carbonyl}-3-(4-toluidino)acryloylcarbamate], greater than 79.4 µM.
